Experimental data reported in US6849634B2, “Potassium channel inhibitors” (ICAgen, priority 2000, dated 2005).

Biological target: T1, Kv1.5 (Homo sapiens, UniProt P22460)
T1 construct: expressed in transfected cells; host or cells: CHO cells
Test: Kv1.5 inhibition by patch clamp technique
Type: cell-based
Details: inhibitors of Kv1.5
Excerpt: The pharmacological profile of the potassium channel inhibitory activity of the compounds of the present invention can be readily assessed by those skilled in the art using routine experimentation, such as the procedures and techniques illustrated in the examples which follow. Assays for assessing the activity of particular compounds may employ cells stably transfected to express a specific potassium channel, as well as native mammalian cells. In particular, stable transfected cells, transfected to express a specific potassium channel, which have been treated with a voltage dependent fluorescent dye, such as bis-(1,3-dibutylbarbituric acid) trimethine oxonol, can be used to gauge the inhibitory activity of potassium channel inhibitor compounds, possibly in comparison to known inhibitors. Alternatively, such cells can be primed with a detectible species, such as 86Rb, and then challenged with a particular compound, under conditions otherwise suitable for activating the potassium channel, to assess the potassium inhibitory activity of the compound. The potassium channel inhibitory activity of a compound also can be determined using isolated mammalian cells and the whole cell configuration of the known patch clamp technique (Hamill et al., Pflugers Archiv 391:85, 1981). These and other known techniques can be readily employed by those skilled in the art to assess the activity level of the potassium channel inhibitor compounds of the present invention.
The cloning, construction and testing of CHO cells that express human voltage-gate potassium channels are described in prior U.S. patent application Ser. No. 08/893,160 (published as WO 98/04521, see also U.S. Pat. No. 6,083,986), as are assays for measuring ^86rubidium efflux from cell monolayers; fluorescence measurement of cell membrane potential; electrophysiological studies and lymphocyte proliferation studies, all of which are incorporated herein by reference.
The efficacy of various compounds of the present invention as inhibitors of Kv1.5 are shown in Table 2 (using the known patch clamp techniques cited above and described in detail in WO 98/04521 (see also U.S. Pat. No. 6,083,986), the disclosure of which is incorporated herein by reference)

T1 sequence (P22460 whole entry): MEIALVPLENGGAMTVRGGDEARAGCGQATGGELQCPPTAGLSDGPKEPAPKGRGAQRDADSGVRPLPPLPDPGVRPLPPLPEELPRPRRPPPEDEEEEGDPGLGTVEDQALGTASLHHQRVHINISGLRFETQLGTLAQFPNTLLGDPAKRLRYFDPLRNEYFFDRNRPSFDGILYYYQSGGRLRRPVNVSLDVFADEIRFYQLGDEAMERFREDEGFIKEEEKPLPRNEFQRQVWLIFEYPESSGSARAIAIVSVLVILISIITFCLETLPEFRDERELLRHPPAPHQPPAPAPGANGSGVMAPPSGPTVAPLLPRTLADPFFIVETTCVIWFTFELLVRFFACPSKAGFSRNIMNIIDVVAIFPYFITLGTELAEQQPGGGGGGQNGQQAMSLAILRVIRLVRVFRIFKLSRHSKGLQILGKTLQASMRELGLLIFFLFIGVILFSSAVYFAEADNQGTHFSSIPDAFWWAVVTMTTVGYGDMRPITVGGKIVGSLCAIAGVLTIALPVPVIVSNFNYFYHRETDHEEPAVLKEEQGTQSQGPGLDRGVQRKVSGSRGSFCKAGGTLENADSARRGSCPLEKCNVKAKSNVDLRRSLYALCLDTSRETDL

inhibition at 0.1 µM	Structure (SMILES)
46%	CCc1ccc(S(=O)(=O)NC2CCc3ccc(Nc4ncccc4NC(=O)CCc4ccccc4)cc32)cc1 (stereo not shown) [Compound 1]
38%	C=CCNC(=O)c1cccnc1Nc1ccc2c(c1)C(NS(=O)(=O)c1ccc(CC)cc1)CC2 (stereo not shown) [Compound 26]
43%	C#CCNC(=O)c1cccnc1Nc1ccc2c(c1)C(NS(=O)(=O)c1ccc(CC)cc1)CC2 (stereo not shown) [Compound 27]
35%	CCCNC(=O)c1cccnc1Nc1ccc2c(c1)C(NS(=O)(=O)c1ccc(CC)cc1)CC2 (stereo not shown) [Compound 37]
45%	CCc1ccc(S(=O)(=O)NC2CCc3ccc(Nc4ncccc4C(=O)NCc4ccco4)cc32)cc1 (stereo not shown) [Compound 42]
27%	O=C(NCCc1ccccc1)c1cccnc1Nc1ccc2c(c1)C(NS(=O)(=O)c1ccc(F)cc1)CC2 (stereo not shown) [Compound 58]
20%	O=C(NCc1cccs1)c1cccnc1Nc1ccc2c(c1)C(NS(=O)(=O)c1ccc(F)cc1)CC2 (stereo not shown) [Compound 59]
